In PubChem BioAssay AID651817 (Broad Institute, 2012):
The source made the active and inactive calls.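 Rule for the calls: active = compound whose fitted luminescence drop, meaning cytotoxicity, reaches half effect at most twice its top valid tested dose; inconclusive = flat curve with a moderate drop, or an unreliable fit; inactive = rise instead of drop, flat response, or weaker potency.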

System: not listed separately
Experiment: NIH/3T3 fibroblast cytotoxicity, dose response, cytotoxicity control for T. cruzi growth inhibitor project, cell-based, cherry-pick samples, set 2 (AID 651817)
Conditions: NIH/3T3 viability, ATP luminescence (CellTiter-Glo), 90 h; at 4.2 µM (top of the series)

Question: For `COc1ccc(CN(C)C[C@H]2Oc3c(NC(=O)Nc4ccc(C(F)(F)F)cc4)cccc3C(=O)N([C@H](C)CO)C[C@H]2C)cc1`, which activity change, negative = cytotoxicity is on record?
Answer: 6.55% (inactive)

Same assay, conditions: NIH/3T3 viability, ATP luminescence (CellTiter-Glo), 90 h; at 18 µM (top of the series)

Question: With `C[C@H]1CN([C@@H](C)CO)C(=O)Cc2cc(NS(=O)(=O)c3ccc(Cl)cc3)ccc2O[C@@H]1CN(C)S(=O)(=O)c1ccc(Cl)cc1` as the compound, how does the activity change, negative = cytotoxicity read?
Answer: -1.6% (inactive)

Same assay, conditions: NIH/3T3 viability, ATP luminescence (CellTiter-Glo), 90 h; at 19.5 µM (top of the series)

Question: Which activity change, negative = cytotoxicity does the source give for `Cc1ccc(S(=O)(=O)Nc2ccc3c(c2)CC(=O)N([C@H](C)CO)C[C@H](C)[C@H](CN(C)Cc2ccc(Cl)c(Cl)c2)O3)cc1` here?
Answer: -1.7% (inactive)

Question: Which activity change, negative = cytotoxicity does the source give for `C[C@@H]1CN([C@@H](C)CO)C(=O)c2cccc(NC(=O)c3ccncc3)c2O[C@H]1CN(C)CC1CC1` here?
Answer: -16.5% (inactive)

Question: Which activity change, negative = cytotoxicity does the source give for `C[C@H]1CN([C@@H](C)CO)C(=O)Cc2cc(NS(=O)(=O)c3ccc(Cl)cc3)ccc2O[C@H]1CN(C)S(=O)(=O)c1ccc(Cl)cc1` here?
Answer: -12.7% (inactive)

Question: For `C[C@H](CO)N1C[C@H](C)[C@H](CN(C)Cc2ccc(Oc3ccccc3)cc2)Oc2c(NC(=O)c3ccncc3)cccc2C1=O`, which activity change, negative = cytotoxicity is on record?
Answer: -12.3% (inactive)

Question: For `C[C@@H]1CN([C@@H](C)CO)C(=O)c2cccc(NC(=O)c3nc4ccccc4s3)c2O[C@@H]1CN(C)S(=O)(=O)c1ccc(Cl)cc1`, which activity change, negative = cytotoxicity is on record?
Answer: -8.38% (inactive)

Question: With `C[C@@H]1CN([C@H](C)CO)C(=O)c2cccc(NC(=O)c3ccncc3)c2O[C@@H]1CN(C)Cc1ccc(C(F)(F)F)cc1` as the compound, how does the activity change, negative = cytotoxicity read?
Answer: -24.5% (inactive)

Question: For `C[C@H]1CN([C@@H](C)CO)C(=O)c2cccc(NC(=O)c3ccncc3)c2O[C@@H]1CN(C)Cc1ccc(-c2ccccc2)cc1`, which activity change, negative = cytotoxicity is on record?
Answer: -14.8% (inactive)

Question: With `Cc1ccc(S(=O)(=O)N(C)C[C@@H]2Oc3ccc(NS(=O)(=O)c4ccc(Cl)cc4)cc3CC(=O)N([C@@H](C)CO)C[C@H]2C)cc1` as the compound, how does the activity change, negative = cytotoxicity read?
Answer: -61.2% (inactive)

Question: With `Cc1ccc(S(=O)(=O)N(C)C[C@@H]2Oc3ccc(NS(=O)(=O)c4ccccc4)cc3CC(=O)N([C@H](C)CO)C[C@@H]2C)cc1` as the compound, how does the activity change, negative = cytotoxicity read?
Answer: 3.11% (inactive)

Question: For `C[C@H]1CN([C@@H](C)CO)C(=O)c2cccc(NC(=O)c3ccncc3)c2O[C@@H]1CN(C)Cc1ccc2c(c1)OCO2`, which activity change, negative = cytotoxicity is on record?
Answer: -3.23% (inactive)

Question: For `C[C@@H]1CN([C@H](C)CO)C(=O)c2cccc(NC(=O)c3nc4ccccc4s3)c2O[C@H]1CN(C)Cc1ccc2c(c1)OCO2`, which activity change, negative = cytotoxicity is on record?
Answer: -10.9% (inactive)

Question: Which activity change, negative = cytotoxicity does the source give for `C[C@@H]1CN([C@@H](C)CO)C(=O)c2cccc(NC(=O)c3ccncc3)c2O[C@H]1CN(C)Cc1ccc(C(F)(F)F)cc1` here?
Answer: 0.884% (inactive)

Question: With `C[C@@H]1CN([C@H](C)CO)C(=O)c2cccc(NC(=O)NC3CCCCC3)c2O[C@H]1CN(C)S(=O)(=O)c1ccc(F)cc1` as the compound, how does the activity change, negative = cytotoxicity read?
Answer: 1.29% (inactive)

Question: For `COc1ccc(CN(C)C[C@H]2Oc3c(NC(=O)c4ccncc4)cccc3C(=O)N([C@H](C)CO)C[C@@H]2C)cc1`, which activity change, negative = cytotoxicity is on record?
Answer: 23.4% (inactive)

Question: Which activity change, negative = cytotoxicity does the source give for `Cc1ccc(S(=O)(=O)N(C)C[C@@H]2Oc3ccc(NS(=O)(=O)c4ccccc4)cc3CC(=O)N([C@H](C)CO)C[C@H]2C)cc1` here?
Answer: -18.9% (inactive)

Question: Which activity change, negative = cytotoxicity does the source give for `C[C@H]1CN([C@@H](C)CO)C(=O)c2cccc(NC(=O)c3ccncc3)c2O[C@@H]1CN(C)Cc1ccc(Cl)c(Cl)c1` here?
Answer: -25.7% (inactive)

Question: With `C[C@@H]1CN([C@@H](C)CO)C(=O)c2cccc(NC(=O)c3ccncc3)c2O[C@H]1CN(C)CC1CCCCC1` as the compound, how does the activity change, negative = cytotoxicity read?
Answer: -8.6% (inactive)

Question: For `C[C@@H]1CN([C@@H](C)CO)C(=O)c2cccc(NC(=O)NC3CCCCC3)c2O[C@H]1CN(C)S(=O)(=O)c1ccc(F)cc1`, which activity change, negative = cytotoxicity is on record?
Answer: 12.1% (inactive)

Question: With `C[C@H](CO)N1C[C@H](C)[C@@H](CN(C)S(=O)(=O)c2ccc(Cl)cc2)Oc2ccc(NS(=O)(=O)c3ccc(Cl)cc3)cc2CC1=O` as the compound, how does the activity change, negative = cytotoxicity read?
Answer: -32.5% (inactive)

Question: With `C[C@H](CO)N1C[C@H](C)[C@@H](CN(C)Cc2ccc(Oc3ccccc3)cc2)Oc2c(NC(=O)c3ccncc3)cccc2C1=O` as the compound, how does the activity change, negative = cytotoxicity read?
Answer: 16.4% (inactive)

Question: With `C[C@H](CO)N1C[C@H](C)[C@H](CN(C)S(=O)(=O)c2ccc(F)cc2)Oc2c(NC(=O)NC3CCCCC3)cccc2C1=O` as the compound, how does the activity change, negative = cytotoxicity read?
Answer: -54.5% (inactive)

Question: With `Cc1noc(C)c1NC(=O)Nc1cccc2c1O[C@@H](CN(C)S(C)(=O)=O)[C@@H](C)CN([C@H](C)CO)C2=O` as the compound, how does the activity change, negative = cytotoxicity read?
Answer: 13.3% (inactive)

Question: Which activity change, negative = cytotoxicity does the source give for `C[C@@H]1CN([C@H](C)CO)C(=O)Cc2cc(NS(=O)(=O)c3ccccc3)ccc2O[C@H]1CN(C)S(=O)(=O)c1ccc(Cl)cc1` here?
Answer: -1.38% (inactive)

Question: Which activity change, negative = cytotoxicity does the source give for `C[C@@H]1CN([C@@H](C)CO)C(=O)c2cccc(NC(=O)c3ccncc3)c2O[C@H]1CN(C)Cc1ccc2c(c1)OCO2` here?
Answer: -26.4% (inactive)

Question: With `C[C@@H]1CN([C@H](C)CO)C(=O)c2cccc(NC(=O)c3nc4ccccc4s3)c2O[C@@H]1CN(C)S(=O)(=O)c1ccccc1` as the compound, how does the activity change, negative = cytotoxicity read?
Answer: 35.6% (inactive)

Question: For `Cc1noc(C)c1NC(=O)Nc1cccc2c1O[C@H](CN(C)S(C)(=O)=O)[C@H](C)CN([C@@H](C)CO)C2=O`, which activity change, negative = cytotoxicity is on record?
Answer: 1.29% (inactive)

Question: With `C[C@@H]1CN([C@H](C)CO)C(=O)c2cccc(NC(=O)c3ccncc3)c2O[C@H]1CN(C)Cc1ccc(Oc2ccccc2)cc1` as the compound, how does the activity change, negative = cytotoxicity read?
Answer: -6.58% (inactive)

Question: With `Cc1ccc(S(=O)(=O)N(C)C[C@H]2Oc3ccc(NS(=O)(=O)c4ccccc4)cc3CC(=O)N([C@H](C)CO)C[C@@H]2C)cc1` as the compound, how does the activity change, negative = cytotoxicity read?
Answer: -11.8% (inactive)

Question: For `Cc1ccc(S(=O)(=O)Nc2ccc3c(c2)CC(=O)N([C@@H](C)CO)C[C@H](C)[C@H](CN(C)S(=O)(=O)c2ccc(Cl)cc2)O3)cc1`, which activity change, negative = cytotoxicity is on record?
Answer: -3.56% (inactive)

Same assay, conditions: NIH/3T3 viability, ATP luminescence (CellTiter-Glo), 90 h; at 21 µM (top of the series)

Question: With `C[C@H]1CN([C@@H](C)CO)C(=O)Cc2cc(NS(=O)(=O)c3ccc(F)cc3)ccc2O[C@@H]1CN(C)Cc1ccc(Cl)c(Cl)c1` as the compound, how does the activity change, negative = cytotoxicity read?
Answer: -12.6% (inactive)

Question: Which activity change, negative = cytotoxicity does the source give for `C[C@H]1CN([C@@H](C)CO)C(=O)c2cccc(NC(=O)c3ccncc3)c2O[C@@H]1CN(C)Cc1ccccc1` here?
Answer: 10.2% (inactive)

Question: With `C[C@H]1CN([C@@H](C)CO)C(=O)c2cccc(NC(=O)Nc3ccc(C(F)(F)F)cc3)c2O[C@@H]1CN(C)Cc1ccc(Cl)c(Cl)c1` as the compound, how does the activity change, negative = cytotoxicity read?
Answer: -12.5% (inactive)

Question: Which activity change, negative = cytotoxicity does the source give for `Cc1ccc(S(=O)(=O)N(C)C[C@H]2Oc3c(NC(=O)c4nc5ccccc5s4)cccc3C(=O)N([C@@H](C)CO)C[C@H]2C)cc1` here?
Answer: -14.2% (inactive)

Question: Which activity change, negative = cytotoxicity does the source give for `C[C@H]1CN([C@@H](C)CO)C(=O)c2cccc(NC(=O)c3ccncc3)c2O[C@H]1CN(C)Cc1ccc(Oc2ccccc2)cc1` here?
Answer: 7.51% (inactive)

System: NIH/3T3 viability, ATP luminescence (CellTiter-Glo), 90 h
Experiment: as above
Conditions: not given

Question: With `C[C@@H]1CN([C@@H](C)CO)C(=O)c2cccc(NC(=O)c3ccncc3)c2O[C@H]1CN(C)Cc1ccc(Oc2ccccc2)cc1` as the compound, how does the AC50 read?
Answer: 20.5 µM
